In US9873709B2 (priority 2013, dated 2018):

System: JAK1-dependent STAT6 phosphorylation downstream of IL-13 stimulation in TF-1 human erythroleukemia cells
Experiment: cells
Conditions: TF-1, read-out: IL-13-pSTAT6 IC50

Structure (SMILES)	IC50 [nM]
CCOC(=O)N1CC=C(c2cccn3nc(Nc4ccc(C(=O)NCCC5CCCNC5)cc4)nc23)CC1 (stereo not drawn) [Example 2-416, ethyl 4-[2-[4-[2-(3-piperidyl)ethylcarbamoyl]anilino]-[1,2,4]triazolo[1,5-a]pyridin-8-yl]-3,6-dihydro-2H-pyridine-1-carboxylate]	598
O=C(c1ccc(Nc2nc3c(N4CCC(O)(c5ccc(Cl)cc5)CC4)cccn3n2)cc1)N1CC2(CNC2)C1 [Example 1-203, [4-[[8-[4-(4-chlorophenyl)-4-hydroxy-1-piperidyl]-[1,2,4]triazolo[1,5-a]pyridin-2-yl]amino]phenyl]-(2,6-diazaspiro[3.3]heptan-2-yl)methanone]	342
CC1CCN(C2CCN(C(=O)c3ccc(Nc4nc5c(C6=CCN(C(=O)CCC(F)(F)F)CC6)cccn5n4)cc3)CC2)CC1 [Example 2-208, 4,4,4-trifluoro-1-[4-[2-[4-[4-(4-methyl-1-piperidyl)piperidine-1-carbonyl]anilino]-[1,2,4]triazolo[1,5-a]pyridin-8-yl]-3,6-dihydro-2H-pyridin-1-yl]butan-1-one]	4.4
O=C(c1ccc(Nc2nc3c(N4CCC(O)(c5ccc(Cl)cc5)CC4)cccn3n2)cc1)N1CCN(CCn2ccnc2)CC1 [Example 1-116, [4-[[8-[4-(4-chlorophenyl)-4-hydroxy-1-piperidyl]-[1,2,4]triazolo[1,5-a]pyridin-2-yl]amino]phenyl]-[4-(2-imidazol-1-ylethyl)piperazin-1-yl]methanone]	34
CCOC(=O)N1CC=C(c2cccn3nc(Nc4ccc(C(=O)NCCN5CCNCC5)cc4)nc23)CC1 [Example 2-112, ethyl 4-[2-[4-(2-piperazin-1-ylethylcarbamoyl)anilino]-[1,2,4]triazolo[1,5-a]pyridin-8-yl]-3,6-dihydro-2H-pyridine-1-carboxylate]	233
NC1CC2(CCN(C(=O)c3ccc(Nc4nc5c(C6=CCN(C(=O)CCC(F)(F)F)CC6)cccn5n4)cc3)CC2)C1 [Example 2-315, 1-[4-[2-[4-(2-amino-7-azaspiro[3.5]nonane-7-carbonyl)anilino]-[1,2,4]triazolo[1,5-a]pyridin-8-yl]-3,6-dihydro-2H-pyridin-1-yl]-4,4,4-trifluoro-butan-1-one]	109
O=C(NCC1CCNC1)c1ccc(Nc2nc3c(C4=CCN(C(=O)CCC(F)(F)F)CC4)cccn3n2)cc1 (stereo not drawn) [Example 2-444, N-(pyrrolidin-3-ylmethyl)-4-[[8-[1-(4,4,4-trifluorobutanoyl)-3,6-dihydro-2H-pyridin-4-yl]-[1,2,4]triazolo[1,5-a]pyridin-2-yl]amino]benzamide]	154
CN1CCN(C(=O)C2CN(C(=O)c3ccc(Nc4nc5c(C6=CCN(C(=O)CCC(F)(F)F)CC6)cccn5n4)cc3)C2)CC1 [Example 2-159, 4,4,4-trifluoro-1-[4-[2-[4-[3-(4-methylpiperazine-1-carbonyl)azetidine-1-carbonyl]anilino]-[1,2,4]triazolo[1,5-a]pyridin-8-yl]-3,6-dihydro-2H-pyridin-1-yl]butan-1-one]	35.1
N[C@]12C[C@H]1CN(C(=O)c1ccc(Nc3nc4c(C5=CCN(C(=O)CCC(F)(F)F)CC5)cccn4n3)cc1)C2 [Example 2-323]	17.5
CN1C[C@@H]2CCN(C(=O)c3ccc(Nc4nc5c(N6CCC(O)(c7ccc(Cl)cc7)CC6)cccn5n4)cc3)[C@@H]2C1 [Example 1-76, [(3aS,6aS)-5-methyl-2,3,3a,4,6,6a-hexahydropyrrolo[2,3-c]pyrrol-1-yl]-[4-[[8-[4-(4-chlorophenyl)-4-hydroxy-1-piperidyl]-[1,2,4]triazolo[1,5-a]pyridin-2-yl]amino]phenyl] methanone]	12.7
O=C(c1ccc(Nc2nc3c(N4CCC(O)(c5ccc(Cl)cc5)CC4)cccn3n2)cc1)N1CCN(C2CC2)CC1 [Example 1-54, [4-[[8-[4-(4-chlorophenyl)-4-hydroxy-1-piperidyl]-[1,2,4]triazolo[1,5-a]pyridin-2-yl]amino]phenyl]-(4-cyclopropylpiperazin-1-yl)methanone]	100
O=C(CCC(F)(F)F)N1CC=C(c2cccn3nc(Nc4ccc(C(=O)N5CCCCC56CCCNC6)cc4)nc23)CC1 (stereo not drawn) [Example 2-34, 1-[4-[2-[4-(1,8-diazaspiro[5.5]undecane-1-carbonyl)anilino]-[1,2,4]triazolo[1,5-a]pyridin-8-yl]-3,6-dihydro-2H-pyridin-1-yl]-4,4,4-trifluoro-butan-1-one]	352
CCOC(=O)N1CC=C(c2cccn3nc(Nc4ccc(C(=O)NC5CC6(CCNCC6)C5)cc4)nc23)CC1 [Example 2-27, ethyl 4-[2-[4-(7-azaspiro[3.5]nonan-2-ylcarbamoyl)anilino]-[1,2,4]triazolo[1,5-a]pyridin-8-yl]-3,6-dihydro-2H-pyridine-1-carboxylate]	257
Cc1ccc(C2CCCN(C(=O)c3ccc(Nc4nc5c(C6=CCN(C(=O)CCC(F)(F)F)CC6)cccn5n4)cc3)C2)nc1 (stereo not drawn) [Example 2-50, 4,4,4-tri fluoro-1-[4-[2-[4-[3-(5-methyl-2-pyridyl)piperidine-1-carbonyl]anilino]-[1,2,4]triazolo[1,5-a]pyridin-8-yl]-3,6-dihydro-2H-pyridin-1-yl]butan-1-one]	65.1
CN(CCc1ccncc1)C(=O)c1ccc(Nc2nc3c(C4=CCN(C(=O)CCC(F)(F)F)CC4)cccn3n2)cc1 [Example 2-96, N-methyl-N-[2-(4-pyridyl)ethyl]-4-[[8-[1-(4,4,4-trifluorobutanoyl)-3,6-dihydro-2H-pyridin-4-yl]-[1,2,4]triazolo[1,5-a]pyridin-2-yl]amino]benzamide]	5.2
O=C(CCC(F)(F)F)N1CC=C(c2cccn3nc(Nc4ccc(C(=O)N5CCO[C@@H]6CNC[C@H]65)cc4)nc23)CC1 [Example 2-448, 1-[4-[2-[4-[(4aR,7aR)-3,4a,5,6,7,7a-hexahydro-2H-pyrrolo[3,4-b][1,4]oxazine-4-carbonyl]anilino]-[1,2,4]triazolo[1,5-a]pyridin-8-yl]-3,6-dihydro-2H-pyridin-1-yl]-4,4,4-trifluoro-butan-1-one]	120
CCOC(=O)N1CC=C(c2cccn3nc(Nc4ccc(C(=O)NCCC5CCCCN5)cc4)nc23)CC1 (stereo not drawn) [Example 2-428, ethyl 4-[2-[4-[2-(2-piperidyl)ethylcarbamoyl]anilino]-[1,2,4]triazolo[1,5-a]pyridin-8-yl]-3,6-dihydro-2H-pyridine-1-carboxylate]	463
O=C(c1ccc(Nc2nc3c(N4CCC(O)(c5ccc(Cl)cc5)CC4)cccn3n2)cc1)N1CCNCC1CO (stereo not drawn) [Example 1-196, [4-[[8-[4-(4-chlorophenyl)-4-hydroxy-1-piperidyl]-[1,2,4]triazolo[1,5-a]pyridin-2-yl]amino]phenyl]-[2-(hydroxymethyl)piperazin-1-yl]methanone]	53.1
CN1CCC(N(C)C(=O)c2ccc(Nc3nc4c(C5=CCN(C(=O)NCc6ccccc6)CC5)cccn4n3)cc2)CC1 [Example 2-222, N-benzyl-4-[2-[4-[methyl-(1-methyl-4-piperidyl)carbamoyl]anilino]-[1,2,4]triazolo[1,5-a]pyridin-8-yl]-3,6-dihydro-2H-pyridine-1-carboxamide]	468
O=C(c1ccc(Nc2nc3c(N4CCC(O)(c5ccc(Cl)cc5)CC4)cccn3n2)cc1)N1CCC2(CCCN2)CC1 [Example 1-226, [4-[[8-[4-(4-chlorophenyl)-4-hydroxy-1-piperidyl]-[1,2,4]triazolo[1,5-a]pyridin-2-yl]amino]phenyl]-(1,8-diazaspiro[4.5]decan-8-yl)methanone]	79.4
CCOC(=O)N1CC=C(c2cccn3nc(Nc4ccc(C(=O)NCC5CCCCN5C)cc4)nc23)CC1 (stereo not drawn) [Example 2-415, ethyl 4-[2-[4-[(1-methyl-2-piperidyl)methylcarbamoyl]anilino]-[1,2,4]triazolo[1,5-a]pyridin-8-yl]-3,6-dihydro-2H-pyridine-1-carboxylate]	13
O=C(CCC(F)(F)F)N1CC=C(c2cccn3nc(Nc4ccc(C(=O)N5CCN(CCO)CC5)cc4)nc23)CC1 [Example 2-153, 4,4,4-trifluoro-1-[4-[2-[4-[4-(2-hydroxyethyl)piperazine-1-carbonyl]anilino]-[1,2,4]triazolo[1,5-a]pyridin-8-yl]-3,6-dihydro-2H-pyridin-1-yl]butan-1-one]	28.6
O=C(NCC1CCCNC1)c1ccc(Nc2nc3c(N4CCC(O)(c5ccc(Cl)cc5)CC4)cccn3n2)cc1 (stereo not drawn) [Example 1-183, 4-[[8-[4-(4-chlorophenyl)-4-hydroxy-1-piperidyl]-[1,2,4]triazolo[1,5-a]pyridin-2-yl]amino]-N-(3-piperidylmethyl) benzamide]	536
O=C(NCCN1CCCC1)c1ccc(Nc2nc3c(C4=CCN(C(=O)CCC(F)(F)F)CC4)cccn3n2)cc1 [Example 2-466, N-(2-pyrrolidin-1-ylethyl)-4-[[8-[1-(4,4,4-trifluorobutanoyl)-3,6-dihydro-2H-pyridin-4-yl]-[1,2,4]triazolo[1,5-a]pyridin-2-yl]amino]benzamide]	17.9
Cc1ccc(C2CCCN2C(=O)c2ccc(Nc3nc4c(C5=CCN(C(=O)CCC(F)(F)F)CC5)cccn4n3)cc2)nc1 (stereo not drawn) [Example 2-143, 4,4,4-trifluoro-1-[4-[2-[4-[2-(5-methyl-2-pyridyl)pyrrolidine-1-carbonyl]anilino]-[1,2,4]triazolo[1,5-a]pyridin-8-yl]-3,6-dihydro-2H-pyridin-1-yl]butan-1-one]	7.9
O=C(NCC1CNCCO1)c1ccc(Nc2nc3c(C4=CCN(C(=O)CCC(F)(F)F)CC4)cccn3n2)cc1 (stereo not drawn) [Example 2-30, N-(morpholin-2-ylmethyl)-4-[[8-[1-(4,4,4-trifluorobutanoyl)-3,6-dihydro-2H-pyridin-4-yl]-[1,2,4]triazolo[1,5-a]pyridin-2-yl]amino]benzamide]	40.3
O=C(CCC(F)(F)F)N1CC=C(c2cccn3nc(Nc4ccc(C(=O)N5CCC(Cc6ccccn6)C5)cc4)nc23)CC1 (stereo not drawn) [Example 2-471, 4,4,4-trifluoro-1-[4-[2-[4-[3-(2-pyridylmethyl)pyrrolidine-1-carbonyl]anilino]-[1,2,4]triazolo[1,5-a]pyridin-8-yl]-3,6-dihydro-2H-pyridin-1-yl]butan-1-one]	6.4
